One series deals with CYP. The experiment in a line: Metabolism and CYP interactions of 3-SPA. An excerpt:
ALZ-801 is a valine conjugate of tramiprosate that has been optimized for improved pharmacokinetic properties and gastrointestinal tolerability. Chronic toxicology studies required for the advancement of ALZ-801 to Phase 3 have been completed, including the nonclinical safety characterization of ALZ-801, and the safety bridge to the extensive nonclinical toxicology and safety data for tramiprosate. […] See Hey et al., Clinical Pharmacokinetics and Safety of ALZ-801, a Novel Prodrug of Tramiprosate in Development for the Treatment of Alzheimer's Disease. Clin Pharmacokinetics 2018; 315-333 and Kocis et al., Elucidating the Abeta42 Anti-Aggregation Mechanism of Action of Tramiprosate in Alzheimer's Disease: Integrating Molecular Analytical Methods. Pharmacokinetic and Clinical Data. CNS Drugs 2017; 31:495-509. […] Both ALZ-801 and tramiprosate have consistent elimination half-life in plasma across species following repeated oral doses of ALZ-801, indicating no potential for accumulation after chronic dosing. Following conversion of ALZ-801 to tramiprosate, tramiprosate is consistently metabolized in vivo into a single major metabolite, 3-sulfopropanoic acid (3-SPA), in humans, mice, rats, dogs and minipigs.

Series [1] is described as follows: Oral and iv pharmacokinetics of 3-SPA in male SD rats. It is filed as in vivo, Sprague-Dawley rats. How it is done: The oral and iv pharmacokinetics of 3-SPA was evaluated in male Sprague-Dawley fasted rats at a dose of 30 mg/kg and 10 mg/kg respectively (n=3 per groups). Animals were housed in a standard facility, with water and food was provided ad libitum to the experiment. 3-SPA was dissolved in saline, was administered orally by gavage and intravenously as a bolus. Serial blood samples (approximately 1.0 mL each) were collected from each animal at 0.25, 0.5, 1, 2, 4, 8 and 24 hours after dosing into tubes containing K2EDTA and processed for plasma by centrifugation. Plasma samples were stored at −80° C. until bioanalyses.
A separate group of animals was dosed orally at 30 mg/kg and terminal brain, CSF and plasma samples were collected at 1, 2, 6, and 24 hr (3 animals for each time point) for bioanalyses of 3-SPA in brain and CSF, and to estimate brain penetration relative to plasma concentrations. The in-life study was performed at Agilux Laboratories (Worcester, MA) following quality standards in line with Good Laboratory Practice. Bioanalyses of rat plasma, CSF and brain was preformed using LC-MS/MS at Nextcea. Prior to processing rat brains for bioanalysis, the brains were perfused to remove pooled blood. Pharmacokinetic data analyses were conducted using Winnonlin Professional v5.0.1 (Pharsight, Mountain View, CA).
The plasma concentration of a single dose of 3-SPA, dissolved in saline as a clear solution, administered orally and intravenously to rats at a dose level of 30 mg/kg and 10 mg/kg, respectively, are shown in FIG. 9. Brain, CSF and corresponding plasma levels after a single oral dose of dose of 30 mg/kg of 3-SPA at 1, 2, 6, and 24 hr are shown in FIG. 10. Mean PK curves were used for calculation of pharmacokinetic parameters.

Read-outs that look alike come from different tables or passages of the source.

For orientation: Tmax means the time at which the peak concentration occurs. A word on the Cmax: it is the peak of the concentration-time curve. A word on the t½: it is how long it takes for the measured level to halve. Lower therefore signals fast loss. With `O=C(O)CCS(=O)(=O)O` [3-SPA, 3-sulfopropanoic acid], the “Further metabolism or CYP interactions (in words)” value in the series with CYP is reported as “No further metabolism or CYP interactions have been observed”. Further, the Tmax in series [1] (Sprague-Dawley, rat, iv 10 mg/kg, plasma, read-out: Tmax) stood at 4.8 min. In series [1] (iv 10 mg/kg), this molecule registered a Cl_obs of 45 mL/min/kg, a Vss_obs of 12.9 L/kg and a Vz_obs of 43.6 L/kg. Moreover, in series [1] (iv 10 mg/kg, plasma), the “AUC 0-inf_obs” value was found to be 3638 ng·h/mL, the “AUC 0-t” value was 3407 ng·h/mL, the C0 amounted to 13599 ng/mL and the Cmax was 7484 ng/mL. In addition, the t½ in series [1] (iv 10 mg/kg, plasma) was found to be 659.4 min. Further, the “Oral Bioavailability” value in series [1] (oral 30 mg/kg vs iv 10 mg/kg) is reported as approximately 100%. In addition, in series [1] (oral 30 mg/kg, plasma), the “AUC 0-inf_obs” value was determined as 19061 ng·h/mL, the “AUC 0-t” value is 18894 ng·h/mL, the Cmax was found to be 8943 ng/mL and the Lambda_z worked out at 0.16 h⁻¹. For the same molecule, in series [1] (oral 30 mg/kg, plasma), the Tmax came out at 30 min and the t½ stood at 264 min.
